Source: paper PMC10099595, “Multimodal 4-arylchromene derivatives with microtubule-destabilizing, anti-angiogenic, and MYB-inhibitory activities” (Cancer Drug Resistance, 2023)
Where two headings read alike, the source gives them in different places.

Key:
[1] = tested on: EA.hy926 endothelial hybrid cells; test: MTT antiproliferative assay, EA.hy926; format: cell-based; conditions: Homo sapiens, EA.hy 926, 72 h
Excerpt: (§1) The following cell lines were used: 518A2 melanoma (Department of Radiotherapy, Medical University of Vienna, Austria)[15], HeLa cervix carcinoma, KBV1^Vbl (ACC-149 cervix carcinoma, MCF7 [ACC-115]) breast carcinoma, U-87 glioblastoma, HT-29 (ACC-299), HCT-116 (ACC-581) and HCT-116p53-/- colon carcinoma, EA.hy926 (ATCC® CRL-2922^TM) endothelial hybrid cells, and HDFa (ATCC® PCS-201-012^TM) adult human dermal fibroblasts. […] Only mycoplasma-free cultures were used.

518A2 melanoma cells = test: MTT antiproliferative assay, 518A2; format: cell-based; conditions: Homo sapiens, 72 h
Excerpt: as §1

[2] = tested on: HCT-116 colon carcinoma cells; test: MTT antiproliferative assay, HCT-116; format: cell-based; conditions: Homo sapiens, 72 h
Excerpt: as §1

[3] = tested on: HCT-116 p53-/- colon carcinoma cells; test: MTT antiproliferative assay, HCT-116 p53-/-; format: cell-based; conditions: Homo sapiens, 72 h
Excerpt: as §1

U-87 glioblastoma cells = test: MTT antiproliferative assay, U87; format: cell-based; conditions: Homo sapiens, 72 h
Excerpt: as §1

[4] = tested on: HT-29 colon carcinoma cells; test: MTT antiproliferative assay, HT-29; format: cell-based; conditions: Homo sapiens, 72 h
Excerpt: as §1

[5] = tested on: KB-V1^Vbl cervix carcinoma cells; test: MTT antiproliferative assay, KB-V1Vbl (with or without verapamil); format: cell-based, human; conditions: for IC50: Homo sapiens, KB-V1/Vbl, MTT, 72 h, without verapamil, read-out: IC50 KB-V1^Vbl; for fold lower IC50 values combined with verapamil: KB-V1^Vbl cells, verapamil 1 µM vs none; for P-gp substrate / dependence on P-gp: inferred from KB-V1^Vbl cells with and without verapamil
Excerpt: as §1

[6] = tested on: HeLa cervix carcinoma cells; test: MTT antiproliferative assay, HeLa; format: cell-based; conditions: Homo sapiens, 72 h
Excerpt: as §1

[7] = tested on: MCF-7 breast carcinoma cells; test: MTT antiproliferative assay, MCF-7; format: cell-based; conditions: Homo sapiens, MCF7, 72 h
Excerpt: as §1

[8] = tested on: HDFa adult human dermal fibroblasts; test: MTT cytotoxicity assay, non-malignant HDFa; format: cell-based; conditions: 72 h, non-malignant cells
Excerpt: as §1

zebrafish larvae = test: Zebrafish angiogenesis assay (SIV area); format: in vivo; conditions: zebrafish larvae 24 hpf, 48 h treatment, 50-1000 nM
Description: Transgenic zebrafish (Tg(fli1:EGFP, casper mutant) were bred at 28 °C.[16] After fertilization, the eggs were transferred to E3-medium (5 mm NaCl, 0.17 mm KCl, 0.33 mm CaCl, 0.33 mm MgSO4, 0.01% methylene blue, pH 7.2), followed by incubation for 24 h. The chorion was manually removed, and the larvae were treated with test compounds or solvent in six-well plates (30 fish per concentration, 5 mL/well) for 48 h. The fluorescent vasculature was documented with a Leica MZ10F and Zeiss AxioCam MRrc. To quantify the angiogenesis, the sub-intestinal vein (SIV) area was measured using ImageJ and expressed as means ± SD with the control set to 100%. The significance of SIV reduction through substance treatment was assessed using one-way analysis of variance (ANOVA), *P < 0.05; **P < 0.01; ***P < 0.001; ****P < 0.0001, with Dunnett´s multiple comparison test (GraphPad Prism 9).

MYB = biological target: T1, MYB (Homo sapiens, UniProt P10242, K503R/K527R); test: Luciferase-dependent MYB activity assay (HEK-MYB-Luc reporter cells); format: cell-based; conditions: HEK-293 reporter cells, 16 h; read-out: IC50 inhibition of MYB activity
T1 construct: expressed in transfected cells; host or cells: HEK-293 (HEK-MYB-Luc reporter cell line)
Description: Compounds were tested using the HEK-MYB-Luc reporter cell line, which allows a doxycycline-dependent induction of MYB expression and harbors an MYB-dependent luciferase reporter plasmid, as previously described. After 16 h of substance treatment (0.0001-3 µM), luciferase activities were analyzed as described.

[9] = tested on: tested cancer and hybrid cell lines; test: MTT assay, average over all tested cancer and hybrid cell lines
Description: An 3-(4, 5-dimethylthiazol-2-yl)-2, 5-diphenyl tetrazolium bromid (MTT) assay was used for antiproliferative studies. Cancer cells (5 × 10^4 cells/mL, 100 μL/well) were placed in 96-well plates (10 × 10^4 cells/mL for HDFA and U87 cells), and the cells were incubated for 24 h at 5% CO2 and 95% humidity. Then, cells were treated with test compounds (at various concentrations) or solely with DMSO as a negative control for 72 h. Then, 12.5 μL of a 0.5% MTT solution in phosphate-buffered saline (PBS) was added to the cells, followed by incubation for 2 h at 37 °C. After centrifugation of the plates (300 × g, 5 min, 4 °C), the medium was discarded, and 25 μL of DMSO containing 10% SDS and 0.6% acetic acid was added, followed by incubation at 37 °C for at least 1 h. Formazan absorbance at λ = 570 nm was measured using a Tecan infinite F200 microplate reader and corrected for the background (λ = 630 nm). The 50% inhibitory concentration (IC50) values were calculated from dose-response curves (means ± SD, four independent experiments) compared to DMSO-treated control cells, which were set to 100%. GraphPad Prism 9 was used for curve-fitting.
The selectivity index (SI) was calculated as a measure of selectivity toward cancer cells compared to non-malignant cells.

[10] = Homo sapiens, read-out: Average IC50 value of the tested cancer and hybrid cell lines (Ø IC50), average of all cell lines of Table 2

T1 sequence (P10242 whole entry K503R/K527R): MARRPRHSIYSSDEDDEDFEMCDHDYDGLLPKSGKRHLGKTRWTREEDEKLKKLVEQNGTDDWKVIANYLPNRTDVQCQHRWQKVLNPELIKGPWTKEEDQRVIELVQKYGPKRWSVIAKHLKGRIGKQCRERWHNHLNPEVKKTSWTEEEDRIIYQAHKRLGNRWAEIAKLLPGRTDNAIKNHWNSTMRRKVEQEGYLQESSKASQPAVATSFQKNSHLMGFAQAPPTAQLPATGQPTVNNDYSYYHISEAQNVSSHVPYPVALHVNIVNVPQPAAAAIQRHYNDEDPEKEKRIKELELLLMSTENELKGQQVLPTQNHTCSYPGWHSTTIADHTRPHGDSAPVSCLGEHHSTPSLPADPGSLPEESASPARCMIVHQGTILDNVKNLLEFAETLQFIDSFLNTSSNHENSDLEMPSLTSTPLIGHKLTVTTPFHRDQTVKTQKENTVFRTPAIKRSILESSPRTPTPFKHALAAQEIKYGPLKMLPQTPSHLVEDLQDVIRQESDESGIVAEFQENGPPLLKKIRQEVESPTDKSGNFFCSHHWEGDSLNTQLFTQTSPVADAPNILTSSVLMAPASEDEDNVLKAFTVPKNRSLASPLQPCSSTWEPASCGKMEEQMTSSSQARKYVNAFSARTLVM

Compound	IC50 [1] [nM]	IC50 (518A2 melanoma cells) [nM]	IC50 [2] [nM]	IC50 [3] [nM]	IC50 (U-87 glioblastoma cells) [nM]	IC50 [4] [nM]	IC50 [5] [nM]	fold lower IC50 values combined with verapamil [5] [fold]	IC50 [6] [nM]	IC50 [7] [nM]	IC50 [8] [nM]	effect on SIV growth (angiogenesis) (zebrafish larvae)	IC50 (MYB) [nM]	IC50 [9, 10] [nM]	P-gp substrate / dependence on P-gp [5]	IC50 ([9]; read-out: Average IC50 value of the tested cancer and hybrid cell lines (Ø IC50), average of all cell lines of Table 2) [nM]
COc1ccc2c(c1)OC(N)=C(C#N)C2c1cc(Br)c(OC)c(OC)c1 (centres unmarked) [2B]	0.8 ± 0.09	6 ± 0.2	100 ± 10	30 ± 3	80 ± 5	200 ± 20	10 ± 1	14	2 ± 0.2	100 ± 8	> 50000	no SIV decrease	1.28 ± 0.3	49	–	–
COc1ccc2c(c1)OC(N)=C(C#N)C2c1cc(I)c(OC)c(OC)c1 (centres unmarked) [2C, 2-Amino-3-cyano-4-(3’-iodo-4’, 5’-dimethoxyphenyl)-7-methoxy-4H-chromene]	60 ± 5	20 ± 2	70 ± 1	6 ± 0.7	25 ± 2	200 ± 20	60 ± 5	20	10 ± 0.9	20 ± 1	> 50000	no SIV decrease	1.56 ± 0.2	47	–	–
COc1ccc2c(c1)OC(N)=C(C#N)C2c1ccccc1F (centres unmarked) [2G, 2-Amino-3-cyano-4-(2’-fluorophenyl)-7-methoxy-4H-chromene]	900 ± 90	700 ± 40	200 ± 20	300 ± 40	3200 ± 100	200 ± 10	700 ± 20	–	400 ± 60	500 ± 40	–	–	–	> 500	–	–
COc1ccc2c(c1)OC(N)=C(C#N)C2c1ccc(F)c(F)c1 (centres unmarked) [2I, 2-Amino-3-cyano-4-(3’, 4’-difluorophenyl)-7-methoxy-4H-chromene]	700 ± 10	700 ± 5	800 ± 6	600 ± 6	3600 ± 500	800 ± 30	700 ± 30	12	600 ± 30	700 ± 100	–	–	–	–	–	–
COc1ccc2c(c1)OC(N)=C(C#N)C2c1ccc(F)c(Cl)c1 (centres unmarked) [2J, 2-Amino-3-cyano-4-(3’-chloro-4’-fluorophenyl)-7-methoxy-4H-chromene]	400 ± 20	400 ± 10	300 ± 30	400 ± 40	1200 ± 70	500 ± 50	300 ± 20	–	100 ± 6	150 ± 20	–	–	–	396	substrate of P-gp	> 500
COc1ccc2c(c1)OC(N)=C(C#N)C2c1ccc(Cl)c(Cl)c1 (centres unmarked) [2K, 2-Amino-3-cyano-4-(3’, 4’-dichlorophenyl)-7-methoxy-4H-chromene]	600 ± 80	600 ± 7	300 ± 10	800 ± 20	8500 ± 300	1900 ± 100	1300 ± 100	–	800 ± 70	1000 ± 50	–	–	–	> 500	–	–
COc1ccc2c(c1)OC(N)=C(C#N)C2c1ccc(F)cc1F (centres unmarked) [2L, 2-Amino-3-cyano-4-(2’, 4’-difluorophenyl)-7-methoxy-4H-chromene]	200 ± 10	500 ± 30	2500 ± 40	1600 ± 160	5100 ± 500	500 ± 50	3800 ± 400	–	1500 ± 70	> 50000	–	–	–	> 500	–	–
COc1ccc2c(c1)OC(N)=C(C#N)C2c1cccc(F)c1F (centres unmarked) [2M, 2-Amino-3-cyano-4-(2’, 3’-difluorophenyl)-7-methoxy-4H-chromene]	400 ± 10	300 ± 10	500 ± 50	200 ± 8	400 ± 60	200 ± 20	900 ± 90	–	90 ± 2	200 ± 30	–	–	–	330	P-gp substrates	–
COc1ccc2c(c1)OC(N)=C(C#N)C2c1cc(F)ccc1F (centres unmarked) [2N, 2-Amino-3-cyano-4-(2’, 5’-difluorophenyl)-7-methoxy-4H-chromene]	4700 ± 900	90 ± 60	500 ± 50	200 ± 10	500 ± 100	400 ± 30	700 ± 70	–	200 ± 20	300 ± 7	–	–	–	> 500	P-gp substrates	–
COc1ccc2c(c1)OC(N)=C(C#N)C2c1cc(F)cc(F)c1 (centres unmarked) [2O]	40 ± 1	60 ± 6	1400 ± 50	40 ± 3	100 ± 10	70 ± 8	20 ± 2	–	40 ± 4	400 ± 60	–	–	–	203	no dependence on P-gp	–
COc1ccc2c(c1)OC(N)=C(C#N)C2c1cc(F)c(F)c(F)c1 (centres unmarked) [2P, 2-Amino-3-cyano-4-(3’, 4’, 5’-trifluorophenyl)-7-methoxy-4H-chromene]	400 ± 40	300 ± 30	300 ± 20	300 ± 20	1100 ± 90	200 ± 5	–	–	100 ± 20	400 ± 50	–	–	–	330	no dependence on P-gp	–
COc1ccc2c(c1)OC(N)=C(C#N)C2c1cccc(S(F)(F)(F)(F)F)c1 (centres unmarked) [2Q, 2-Amino-3-cyano-4-(3’-pentafluorothiophenyl)-7-methoxy-4H-chromene]	600 ± 20	300 ± 10	700 ± 40	2900 ± 10	900 ± 60	400 ± 30	1900 ± 100	–	400 ± 4	800 ± 30	–	–	–	> 500	–	–
COc1ccc2c(c1)OC(N)=C(C#N)C2c1cccc([N+](=O)[O-])c1 (centres unmarked) [2R]	300 ± 9	30 ± 2	300 ± 30	200 ± 20	900 ± 50	200 ± 20	30 ± 0.4	–	300 ± 20	10 ± 0.8	–	–	–	227	–	–
